In brackets after ≈: the same amount, converted by molar mass. Where two headings read alike, the source gives them in different places.
What was measured:
PqsR [1] = target: T1, PqsR (Pseudomonas aeruginosa, UniProt Q9I4X0); test: E. coli based β-galactosidase reporter gene assay (PqsR inverse agonistic activity); assay type: cell-based; parameters: expressed in transfected cells; host or cells: Escherichia coli DH5α
In short: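 E. coli DH5α carrying pEAL08-2 (tac-driven pqsR with pqsA-lacZ) was grown to OD600 0.2 and incubated with 0.001–10 μM compound plus 50 nM PQS for 2.5 h at 37 °C. β-Galactosidase activity was measured by ONPG conversion in permeabilized cells and normalized between the no-PQS and solvent controls. IC50 came from concentration variation.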

HepG2 cells = test: Cytotoxicity (MTT) toward HepG2; assay type: cell-based; details: Homo sapiens, 48 h, upper class: or at solubility maximum, read-out: IC50-value towards HepG2
Experimental: (§1) To obtain information regarding the toxicity of our compounds, their impact on the viability of human cells was investigated. HepG2 and HEK293 cells (2×10^5 per well) were seeded in 24-well, flat-bottomed culture plates. 24 h after seeding the cells the incubation was started by the addition of compounds in a final DMSO concentration of 1%. The living cell mass was determined 48 h after treatment with compounds by adding 0.1 volumes of 3-(4,5-dimethylthiazol-2-yl)-2,5-diphenyltetrazolium bromide (MTT) solution (5 mg per mL sterile PBS) (Sigma, St. Louis, MO) to the wells. After incubating the cells for 30 min at 37° C. (atmosphere containing 5% CO2), MTT crystals were dissolved in a solution containing 10% SDS and 0.5% acetic acid in DMSO. The optical density (OD) of the samples was determined photometrically at 570 nm in a FLUOstar Omega plate reader (BMG labtech, Ortenberg, Germany). To obtain inhibition values for each sample, their ODs were related to those of DMSO controls.

[2] = tested on: eDNA content of P. aeruginosa PA14 biofilm; test: Biofilm assay, eDNA content (propidium iodine); assay type: cell-based; details: Pseudomonas aeruginosa; PA14, propidium iodine fluorescence; read-out: IC50-value towards eDNA content of the biofilm
Experimental: (§2) Commonly used crystal violet (CV) assay procedures (PMID: 3905855, PMID: 10547784, PMID: 22488868) were adapted for determination of biofilm mass. For the cultivation of biofilm in 96 well plates, the protocol described by Frei et al. (PMID: 22488868) was slightly modified by replacement of medium and Pseudomonas strain used. The experiment was performed using P. aeruginosa PA14 strain and PPGAS medium. CV staining was used to detect compound effects on the overall biofilm biomass. Impact on eDNA was assessed by incubation of biofilm with propidium iodine solution (0.05 mg ml^−1) for 24 h and detection of specific florescence at 620 nm (excitation 544 nm) after a thorough washing step with 18 MΩ H2O. (PMID: 16430688)

HEK293 cells = test: Cytotoxicity (MTT) toward HEK293; assay type: cell-based; details: Homo sapiens, 48 h, upper class: or at solubility maximum, read-out: IC50-value towards HEK293
Experimental: as §1

[3] = Metabolic stability against human hepatic S9 fraction; assay type: in vitro ADME; details: pooled human liver S9 fraction; 1 μM compound, 1 mg/mL pooled human liver S9, phase I and II cofactors, 37° C.; read-out: half-life (t1/2) towards human hepatic S9 fraction
Experimental: For the evaluation of combined phase I and phase II metabolic stability, the compound (1 μM) was incubated with 1 mg/mL pooled human liver S9 fraction (BD Gentest), 2 mM NADPH regenerating system, 1 mM UDPGA, 10 mM MgCl2 and 0.1 mM PAPS at 37° C. for 0, 5, 15, 30 and 60 min. The metabolic stability of Testosterone (1 μM) and 7-hydroxycoumarin (1 μM) were determined in parallel to confirm the enzymatic activity of the S9 fraction. The incubation was stopped by precipitation of S9 enzymes with 2 volumes of cold acetonitrile containing internal standard (750 nM Diphenhydramine). Samples were stored on ice for 10 min and precipitated protein was removed by centrifugation (10 min, 4° C., 17,000 g). Concentration of the remaining test compound at the different time points was analyzed by LC-MS/MS (TSQ Quantum Access MAX, Thermo Fisher, Dreieich, Germany) and used to determine half-life (t/2).

[4] = tested on: P. aeruginosa PA14 biofilm; test: Biofilm assay, crystal violet staining (biofilm mass); assay type: cell-based; details: Pseudomonas aeruginosa, PA14, PPGAS medium, read-out: IC50-value towards biofilm formation
Experimental: as §2

[5] = tested on: P. aeruginosa pyocyanin production; test: Pyocyanin assay; assay type: cell-based, P. aeruginosa PA14; details: Pseudomonas aeruginosa, PA14, 16 h, read-out: IC50-value towards pyocyanin production, PA14 in PPGAS medium, 16 h
In short: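 PA14 in PPGAS medium from OD600 0.02 grown 16 h at 37 °C, 200 rpm, with compounds. Pyocyanin extracted with chloroform, back-extracted into 0.2 M HCl, OD520 normalised to OD600.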

[6] = Turbidimetric Aqueous Solubility at 37° C. for 2 h; assay type: physicochemical; details: aqueous buffer, kinetic from dmso stock, 1% DMSO in buffer, estimated precipitation range
Experimental: Turbidimetric Aqueous Solubility at 37° C. for 2 h. Test compound was diluted in buffer to give a range of concentrations (typically 1, 3, 10, 30 and 100 μM, final DMSO concentration 1%) and incubated at 37° C. for 2 hr. Absorbance was measured at a wavelength of 620 nm and the solubility was estimated from the concentration of test compound that produces an increase in absorbance above the vehicle control (i.e., 1% DMSO in buffer). An estimated precipitation range (lower and upper bound) was provided as result.

[7] = Kinetic Turbidimetric Aqueous Solubility at room temperature for 5 min; assay type: physicochemical; details: PBS buffer, kinetic from dmso stock, 2% DMSO
In short: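 Compound diluted in PBS across typically 0.4–200 μM (final DMSO 2%), held 5 min at room temperature. Turbidity read as absorbance at 620 nm against vehicle control. Four-parameter sigmoidal fit of normalized absorbances with AUC calculation gives Log S.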

pyocyanin production = details: in cellulo; read-out: inhibition of virulence factor pyocyanin production IC50; cited from earlier work
[8] = tested on: production of signal molecules HHQ and PQS; details: at 15 μM; cited from earlier work
PqsR [9] = target: T1, PqsR; parameters: expressed in transfected cells; host or cells: Escherichia coli DH5α; details: read-out: IC50 in E. coli reporter gene assay; cited from earlier work
PqsR [10] = target: T1, PqsR; parameters: host or cells: P. aeruginosa; details: read-out: IC50 in P. aeruginosa reporter gene assay; cited from earlier work

T1 sequence (Q9I4X0 whole entry): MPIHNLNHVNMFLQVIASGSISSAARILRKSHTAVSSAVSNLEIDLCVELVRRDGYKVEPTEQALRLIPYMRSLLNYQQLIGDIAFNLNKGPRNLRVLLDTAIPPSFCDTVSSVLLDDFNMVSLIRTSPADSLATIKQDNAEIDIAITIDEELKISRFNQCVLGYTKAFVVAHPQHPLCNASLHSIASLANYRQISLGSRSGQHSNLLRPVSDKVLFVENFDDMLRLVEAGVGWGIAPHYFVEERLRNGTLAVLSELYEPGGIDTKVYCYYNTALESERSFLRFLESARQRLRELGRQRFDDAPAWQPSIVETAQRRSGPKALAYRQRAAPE

Compound	IC50 (PqsR [1])	IC50 (HepG2 cells)	IC50 [2]	IC50 (HEK293 cells)	half-life at 1 μM [3]	IC50 [4]	IC50 [5]	solubility at 2 h [6]	solubility at 5 min [7]	IC50 (pyocyanin production)	reduction of HHQ production [8]	reduction of PQS production [8]	IC50 (PqsR [9])	IC50 (PqsR [10])
FC(F)(F)c1cc(NCc2cn(-c3ccc(Oc4ccccc4)cc3)nn2)ccn1 [Compound 001, N-((1-(4-Phenoxyphenyl)-1H-1,2,3-triazol-4-yl)methyl)-2-(trifluoromethyl) pyridin-4-amine]	≤ 0.05 µM	25 to 50 µM	< 0.5 µM	25 to 50 µM	0.683 to 1 h	≤ 0.5 µM	≤ 0.25 µM	–	–	–	–	–	–	–
COc1ccc(-n2cc(CNc3ccnc(C(F)(F)F)c3)nn2)cc1Cl [Compound 017, N-((1-(3-chloro-4-methoxyphenyl)-1H-1,2,3-triazol-4-yl)methyl)-2-(trifluoromethyl)pyridin-4-amine]	≤ 0.05 µM	–	–	–	0.683 to 1 h	≤ 0.5 µM	0.251 to 1 µM	10 to 30 µM (≈ 3.84 to 11.5 µg/mL)	> 50 µM	–	–	–	–	–
CCCCCCCc1[nH]c2ccc([N+](=O)[O-])cc2c(=O)c1C(N)=O [2-heptyl-6-nitro-4-oxo-1,4-dihydroquinoline-3-carboxamide]	–	–	–	–	–	–	–	–	–	2 µM	54%	37%	0.035 µM	0.4 µM
FC(F)(F)c1cc(SCc2nc3ccc(Oc4ccccc4)cc3o2)ccn1 [Compound 132, 6-Phenoxy-2-(((2-(trifluoromethyl)pyridin-4-yl)thio)methyl)benzo[d]oxazole]	0.051 to 0.25 µM	–	–	25 to 50 µM	> 1 h	–	0.251 to 1 µM	10 to 30 µM (≈ 4.02 to 12.1 µg/mL)	–	–	–	–	–	–

Source: patent publication US11883387B2, “PqsR inverse agonists” (HELMHOLTZ-ZENTRUM FÜR INFEKTIONSFORSCHUNG GMBH, priority 2018, dated 2024)
